Measurements reported in US20140066367A1, “SUBCUTANEOUS DELIVERY OF A LONG-ACTING NATRIURETIC PEPTIDE” (Mayo Foundation for Medical Education and Research, priority 2012, published 2014).

Key:
[1] = Plasma ANP immunoreactivity and pharmacokinetics after subcutaneous administration to conscious canines; format: in vivo, canine
Protocol: (§1) Studies were performed in accordance with the Animal Welfare Act and with approval of the Mayo Clinic Institutional Animal Care and Use Committee. A randomized crossover study was designed in which equimolar (2.225 nmol/kg) SQ M-ANP and SQ ANP were administered to conscious healthy adult canines (n=5) at 2-week intervals. Vehicle (SQ 0.9% normal saline) was administered to 3 canines serving as a control group. At least 7 days prior to the above studies, an arterial port was placed in the femoral artery as previously described (Cataliotti et al. (2008) Circulation, 118:1729-1736). After recovery from arterial port placement, canines were fed a fixed sodium diet of 100 mEq/d with ad libitum access to water for 5 days before initiation of studies. During this time, canines were acclimatized to standing calm in a sling. On the day of the experiment, the dogs were fasted and placed in a sling in a quiet room. Thirty minutes before the beginning of the experiment, the femoral artery port was accessed for continuous BP and heart rate assessment (iWorx, Dover, N.H.). After 30 minutes of acclimatization, the study protocol was started. Subcutaneous M-ANP, ANP or vehicle was administered at time 0 minutes. At time −15, 0, 5, 10, 15, 30, 45, 60, 75, 90, 120, 150, 180, 210, 240, 270, and 300 minutes, mean arterial pressure (MAP) and heart rate samples were obtained over a period of 1 minute. […]
(§2) Blood samples were collected in chilled EDTA tubes, immediately placed on ice, and centrifuged at 4° C. […] After extraction, plasma ANP immunoreactivity (Phoenix Pharmaceuticals, Burlingame, Calif.) was assessed by radioimmunoassay as previously described (Burnett et al. (1986) Science, 231:1145-1147). […] Plasma cGMP (PerkinElmer, Waltham, Mass.) was assessed by radioimmunoassay (Steiner et al., supra).
(§3) Pharmacokinetic profile of M-ANP compared to ANP was determined using PK Solutions software (Summit PK, Montrose, Colo.). Specific parameters that were determined included plasma half-life, maximum concentration (Cmax) and area under the curve (AUC).

cGMP = assay: Plasma cGMP after subcutaneous administration to conscious canines; format: in vivo, canine
Protocol: as §1, §2, §3

[2] = Mean arterial pressure and heart rate after subcutaneous administration to conscious canines; format: in vivo, canine; settings: SQ
Protocol: as §1

[3] = infusion of a low dose, normal dogs; cited from earlier work
[4] = plasma cGMP, subcutaneous, equimolar 2.225 nmol/kg, conscious canines

CC[C@H](C)[C@@H]1NC(=O)[C@H](CCCNC(=N)N)NC(=O)[C@H](CC(=O)O)NC(=O)[C@H](CCSC)NC(=O)[C@H](CCCNC(=N)N)NC(=O)CNC(=O)CNC(=O)[C@H](Cc2ccccc2)NC(=O)[C@@H](NC(=O)[C@H](CO)NC(=O)[C@H](CO)NC(=O)[C@H](CCCNC(=N)N)NC(=O)[C@H](CCCNC(=N)N)NC(=O)[C@H](CC(C)C)NC(=O)[C@@H](N)CO)CSSC[C@@H](C(=O)N[C@@H](CC(N)=O)C(=O)N[C@@H](CO)C(=O)N[C@@H](Cc2ccccc2)C(=O)N[C@@H](CCCNC(=N)N)C(=O)N[C@@H](Cc2ccc(O)cc2)C(=O)O)NC(=O)CNC(=O)[C@H](CC(C)C)NC(=O)CNC(=O)[C@H](CO)NC(=O)[C@H](CCC(N)=O)NC(=O)[C@H](C)NC(=O)CNC1=O [ANP]
time ANP immunoreactivity remained significantly elevated ([1]; SQ, canines): 45 min
time of peak ANP immunoreactivity after administration ([1]; SQ, canines): 15 min
ANPi AUC ([1]; subcutaneous, equimolar 2.225 nmol/kg, conscious canines): 10.8 ± 2.4 pmol·min/mL
duration of sustained cGMP activation (cGMP; SQ, canines): 60 min
cGMP AUC (cGMP; [4]): 676 ± 211 pmol·min/mL
cGMP Cmax (cGMP; [4]): 14.7 ± 1.9 pmol/mL
effect on MAP [2]: no significant reduction in MAP
change in glomerular filtration rate (GFR) or MAP [3]: No change
